Test system: freshly isolated human peripheral blood cells
Assay: Seahorse oxygen consumption rate (OCR)
Assay type: cell-based
Details: average
Description: Testing was performed using Seahorse technology in order to measure real-time changes in oxygen consumption by freshly isolated human peripheral blood cells.
All results were generated on freshly isolated blood cells from different and randomly selected healthy and fasted donors. […] These two values were used as positive and negative controls, respectively, in order to ensure quality of test, viability and metabolic functionality of fresh human blood cells. Oligomycin inhibits oxygen metabolism. In presence of this substance, cells generate ATP/energy mainly via glycolysis. […] To ensure quality of human blood cells, blood was collected directly into Cell Preparation Tube with Sodium Citrate, Becton Dickinson Inc. Peripheral blood cells were isolated during 45 minutes following Protocol provided by Becton Dickinson. Blood cells were cultivated during each experiment in Seahorse media supplemented with 5 mM of glucose. Glucose concentration was adjusted from 11 mM to 5 mM to avoid testing of samples under hyperglycemic conditions (typically glucose at concentration lower than 95 mg/dl).
Cells were isolated from healthy fasted subject, and treated with apple extract at indicated dose. […] Rate 7, 8 and 14 represent time-points: 4, 8 and 32 minutes after the treatment, respectively.

**Q.** With `N#CC(C#N)=NNc1ccc(OC(F)(F)F)cc1` [FCCP] as the molecule, how does the “increase in OCR” value (positive control) read?
**A.** 397%

**Q.** Which “inhibition of OCR” value (negative control) does the source give for `CC[C@H]1/C=C/C=C/C[C@@H](C)[C@H](O)[C@@](C)(O)C(=O)[C@@H](C)[C@H](O)[C@@H](C)C(=O)[C@@H](C)[C@H](O)[C@@H](C)/C=C/C(=O)O[C@@H]2[C@H](C)[C@H](CC1)O[C@]1(CC[C@H](C)[C@H](C[C@@H](C)O)O1)[C@H]2C` [oligomycin] here?
**A.** 86%

— patent US9327005B1, “Compositions and methods for improved energy metabolism” (VDF FutureCeuticals, Inc., priority 2012, dated 2016)
